{"source": "patent US20250186369A1", "about": "“COMPOUNDS, COMPOSITIONS, AND METHODS FOR TREATING, AMELIORATING, AND/OR PRVENTING COCAINE USE DISORDER” (Drexel University, priority 2022, published 2025)", "key": {"[1]": {"tested_on": "pDAT", "test": "Time course densitometry of pDAT levels in SH-SY5Y-D3R cells", "type": "cell-based", "conditions": "PRX 5 nM, SK608 1 μM, SK609 1 μM; for pDAT levels, combined with / post cocaine (CC): FIG. 5B, cocaine 1 μM", "procedure": "FIGS. 5A-5B illustrate that SK609 and its analogues reduce pDAT levels when pretreated with cocaine in a time dependent manner. Time course densitometry analysis of the effects of cocaine (1 μM), PRX (5 nM), SK608 (1 μM), and SK609 (1 μM) on pDAT levels in SH-SY5Y-D3R cells. Different groups of cells were pre-treated with (FIG. 5A) CC, PRX, SK609 and SK608 or (FIG. 5B) CC, CC/PRX, CC/SK609 and CC/SK608 and were collected at the time points indicated. pDAT levels were measured and GAPDH was used as loading control. Data are presented as mean±sd from three independent experiments performed in triplicate."}, "[2]": {"test": "Self-administration of PRX or SK609 on fixed ratio 1 schedule before and after cocaine (FIG. 7)", "procedure": "FIG. 7A: Rats were implanted with jugular catheters and then allowed to self-administer either pramipexole (PRX; 0.25 mg/kg) or SK609 (609; 4 mg/kg) on a 6-hr, fixed ratio 1 schedule of reinforcement (Pre-Cocaine; left gray shading). After 10 days of PRX or SK609 access, rats were switched to cocaine (0.75 mg/kg). Once rats acquired cocaine self-administration behavior (defined as 20 injections of cocaine within a single 6-session) they were allowed another two days of cocaine access (Cocaine; blue shading). Only the last 3 days of cocaine self-administration are plotted. After cocaine self-administration, rats were switched back to PRX and SK609 to assess if these compounds would now maintain reinforced responding (Post-Cocaine; right gray shading). […] Data are mean±s.e.m. Student's t-test. *p<0.05.\nAfter 10 days of PRX or SK609 access, rats were switched to cocaine (0.75 mg/kg). Once rats acquired cocaine self-administration behavior (defined as 20 injections of cocaine within a single 6-session) they were allowed another two days of cocaine access (Cocaine; blue shading). Only the last 3 days of cocaine self-administration are plotted. After cocaine self-administration, rats were switched back to PRX and SK609 to assess if these compounds would now maintain reinforced responding (Post-Cocaine; right gray shading).\nData are mean±s.e.m. Student's t-test. *p<0.05."}, "[3]": {"tested_on": "dopamine transporter (DAT)", "test": "Fast scan cyclic voltammetry of dopamine release and uptake in nucleus accumbens core tissue after i.p. dosing", "type": "in vivo, rats", "conditions": "for dopamine release at baseline: FIG. 8B; for dopamine release at baseline / dopamine uptake at baseline: naive rats, i.p. 30 min prior to sacrifice, PRX 0.25 mg/kg, SK608 4 mg/kg, SK609 4 mg/kg, vs saline; for dopamine uptake at baseline: FIG. 8C; for dopamine release after bath-applied cocaine: FIG. 8D; for dopamine release after bath-applied cocaine / inhibition of dopamine uptake by cocaine: same dosing, cocaine bath applied to tissue; for inhibition of dopamine uptake by cocaine: FIG. 8E", "procedure": "(§1) (FIG. 3A) DA release, (FIG. 3B) DA uptake (Vmax), and (FIG. 3C) DAT sensitivity to cocaine (inhibition of DA uptake; app Km) following vehicle (Veh) or 4 mg/kg SK609.\n(§2) Naive rats were injected intraperitoneally with saline (SAL), pramipexole (PRX; 0.25 mg/kg), SK608 (608; 4 mg/kg), or SK609 (609; 4 mg/kg) 30 min prior to sacrifice. […] (FIG. 8A) Example dopamine traces, (FIG. 8B) dopamine release and (FIG. 8C) dopamine uptake at baseline, (FIG. 8D) dopamine release and (FIG. 8E) inhibition of dopamine uptake. Data are mean±s.e.m.\nas §1\nas §2, with “mean s.e.m.” for “mean±s.e.m.”"}, "[4]": {"conditions": "in vivo; cited from earlier work"}, "[5]": {"tested_on": "pDAT", "test": "Western blot / densitometry of pDAT in striatal synaptosomes of cocaine-treated rats", "type": "in vivo", "conditions": "cocaine 15 mg/kg pre-treatment, SK609 4 mg/kg", "procedure": "(FIG. 4A) Representative western blots for pDAT, tDAT, D3R, βarr2 and GAPDH on striatal synaptosomes derived from rats treated with either saline (sal) or cocaine (CC) (15 mg/kg) or SK609 (4 mg/kg) or Pramipexole (PRX; (S)-N^6-propyl-4,5,6,7-tetrahydro-1,3-benzothiazole-2,6-diamine) (0.25 mg/kg) with and without cocaine pre-treatment. […] (FIG. 4B) Densitometry analysis of pDAT expression. Data are presented as mean s.e.m. from 3 independent experiments from n=3 rats/group. *p<0.05, **p<0.001.\n(FIG. 4A) Representative western blots for pDAT, tDAT, D3βarr2 and GAPDH on striatal synaptosomes derived from rats treated with either saline (sal) or cocaine (CC) (15 mg/kg) or SK609 (4 mg/kg) or Pramipexole (PRX) (0.25 mg/kg) with and without cocaine pre-treatment. (FIG. 4B) Densitometry analysis of pDAT expression. Data are presented as mean±s.e.m. from 3 independent experiments from n=3 rats/group. *p<0.05, **p<0.001."}, "[6]": {"test": "SK609 self-administration in rats (FIG. 1)", "type": "in vivo", "conditions": "rats given access to 4 mg/kg SK609; comparison 0.75 mg/kg cocaine", "procedure": "(§3) Shown are injections taken for rats given access to 4 mg/kg SK609 and 0.75 mg/kg cocaine. Dashed line represents acquisition criteria which required 4 consecutive days of 10 injections per session. Cocaine data are aligned to the first day in which rats met acquisition criteria. Data represent mean±s.e.m. *p<0.05, ***p<0.001.\nas §3, with “Shown in FIG. 1” for “Shown”, “mean s.e.m.” for “mean±s.e.m.”"}, "[7]": {"test": "Cocaine self-administration on Progressive Ratio (PR) schedule, motivation for cocaine", "type": "in vivo, rodent", "conditions": "i.p. 2 mg/kg or 4 mg/kg SK609", "procedure": "FIGS. 2A-2B illustrate that SK609 reduces motivation for cocaine in a rodent self-administration model. […] (FIG. 2A) Breakpoints and (FIG. 2B) lever presses following i.p. vehicle, 2 mg/kg or 4 mg/kg SK609. Data are expressed as the mean±s.e.m., percent of baseline responding. *P<0.05.\n(FIG. 2A) Breakpoints and (FIG. 2B) lever presses following i.p. vehicle, 2 mg/kg or 4 mg/kg SK609. Data are expressed as the mean±s.e.m., percent of baseline responding. *P<0.05."}, "[8]": {"target": "T1, D2 receptor (Homo sapiens, UniProt P14416)", "T1 construct": "expressed in transfected cells; host or cells: CHO-D2R (or HEK-D2R) cells", "T1 sequence (P14416 whole entry)": "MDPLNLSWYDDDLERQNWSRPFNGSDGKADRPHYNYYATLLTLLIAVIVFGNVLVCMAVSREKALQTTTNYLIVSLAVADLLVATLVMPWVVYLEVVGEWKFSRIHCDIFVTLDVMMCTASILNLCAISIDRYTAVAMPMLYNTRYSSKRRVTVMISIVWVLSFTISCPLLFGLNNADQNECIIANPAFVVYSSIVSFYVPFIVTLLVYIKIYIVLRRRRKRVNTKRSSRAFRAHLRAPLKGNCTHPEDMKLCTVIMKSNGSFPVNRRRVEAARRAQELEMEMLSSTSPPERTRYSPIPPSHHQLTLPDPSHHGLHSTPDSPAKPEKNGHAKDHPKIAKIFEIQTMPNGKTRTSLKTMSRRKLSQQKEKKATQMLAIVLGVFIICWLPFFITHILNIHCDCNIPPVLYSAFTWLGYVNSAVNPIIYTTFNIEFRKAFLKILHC", "test": "ERK1/2 MAPK activation assay (phosphorylation immunoblot), D2 receptor", "type": "cell-based", "conditions": "1 μM, 2 min, CHO-D2R (or HEK-D2R) cells", "procedure": "(§4) Selected compounds of the disclosure, as well as dopamine (DA) and PD128907 [a commercially available dopamine D2/D3 agonist; (4aR,10bR)-3,4a,4,10b-tetrahydro-4-propyl-2H,5H-[1]benzopyrano-[4,3-b]-1,4-oxazin-9-ol], were tested in an established ERK1/2 MAPK activation assay for dopamine D2 or D3 agonist activity. The results of these side-by-side tests, comprising immunoblot analysis of phosphorylated ERKT/2 MAPK, are illustrated in FIGS. 9-10.\n(§5) Functional screening was conducted with vehicle or test compounds using ERK1/2 phosphorylation as endpoint as described herein. 0.4×10^6 CHO-D3R (or HEK-D3R) and CHO-D2R (or HEK-D2R) cells were seeded in 6-well plates and cultured in 3 ml DMEM complete growth medium for 48 h. […]\n(§6) Cell lysates were assayed or protein content with DC Protein Assay Kit II (Bio-Rad). […] Total p44/42 MAPK levels in the same blots were also determined with rabbit anti-p44/42 MAPK monoclonal or polyclonal antibody (1:5000, Cell Signaling Technology) after stripping the blots of the same PVDF membrance. Chemiluminescence detection was performed using the SuperSignal West Dura Extended Duration Substrate detection kit (Thermo Scientific, Rockford, IL) and phosphorylated or total ERK1/2 MAPK immunoblots were quantified by densitometry with ImageQuant LAS4000 (GE Healthcare Bio-Sciences, Pittsburgh, PA). […]"}, "[9]": {"target": "T2, D3 receptor (Homo sapiens, UniProt P35462)", "T2 construct": "expressed in transfected cells; host or cells: CHO-D3R (or HEK-D3R) cells", "T2 sequence (P35462 whole entry)": "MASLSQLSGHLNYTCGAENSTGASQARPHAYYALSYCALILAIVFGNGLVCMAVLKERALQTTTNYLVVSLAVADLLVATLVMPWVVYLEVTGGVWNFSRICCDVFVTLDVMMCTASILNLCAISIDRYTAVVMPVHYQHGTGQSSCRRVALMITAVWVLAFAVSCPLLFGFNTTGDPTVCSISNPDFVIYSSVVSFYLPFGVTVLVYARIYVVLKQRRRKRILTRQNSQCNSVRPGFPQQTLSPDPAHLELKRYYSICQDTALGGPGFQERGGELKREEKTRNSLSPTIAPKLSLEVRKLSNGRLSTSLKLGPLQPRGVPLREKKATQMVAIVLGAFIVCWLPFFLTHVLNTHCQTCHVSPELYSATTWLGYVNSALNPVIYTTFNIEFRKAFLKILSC", "test": "ERK1/2 MAPK activation assay (phosphorylation immunoblot), D3 receptor", "type": "cell-based", "conditions": "1 μM, 2 min, CHO-D3R (or HEK-D3R) cells", "procedure": "as §4, §5, §6"}}}
{"smiles": "CCCN[C@H]1CCc2nc(N)sc2C1", "note": "[PRX, (S)-N^6-propyl-4,5,6,7-tetrahydro-1,3-benzothiazole-2,6-diamine, reference compound]", "values": [{"measurement": "pDAT levels, compound on its own", "setting": "[1]; FIG. 5A", "value": "significant increase in pDAT levels"}, {"measurement": "pDAT levels, combined with / post cocaine (CC)", "setting": "[1]", "value": "significant increase in pDAT levels"}, {"measurement": "overall intake, post-cocaine", "setting": "[2]; rat, in vivo", "value": "sustained higher overall PRX intake compared to SK609"}, {"measurement": "cumulative intake, pre-cocaine", "setting": "[2]; rat, in vivo, 10 days", "value": "higher cumulative intake of PRX compared to SK609"}, {"measurement": "dopamine release at baseline", "setting": "[3]", "value": "no effect on DA release or uptake"}, {"measurement": "dopamine uptake at baseline", "setting": "[3]", "value": "no effect on DA release or uptake"}, {"measurement": "dopamine release after bath-applied cocaine", "setting": "[3]", "value": "had no effect"}, {"measurement": "inhibition of dopamine uptake by cocaine", "setting": "[3]", "value": "had no effect"}, {"measurement": "compulsive drug seeking behavior", "setting": "[4]", "value": "producing compulsive drug seeking behavior"}]}
{"smiles": "CC(N)CCc1ccccc1Cl", "note": "(stereo not drawn) [SK609, 4-(2-chlorophenyl)-butan-2-amine]", "values": [{"measurement": "pDAT levels, combined with / post cocaine (CC)", "setting": "[1]", "value": "significantly reduced pDAT levels"}, {"measurement": "pDAT expression in striatal synaptosomes", "setting": "[5]", "value": "reduces expression of pDAT"}, {"measurement": "self-administration (injections taken)", "setting": "[6]", "value": "does not support self-administration"}, {"measurement": "acquisition of self-administration of the compound (reinforcing effect)", "setting": "[2]; FIG. 7A, 6-hr fixed ratio 1, PRX 0.25 mg/kg, SK609 4 mg/kg", "value": "not robust reinforcers"}, {"measurement": "DA release", "setting": "[3]; FIG. 3A, 4 mg/kg SK609 vs vehicle", "value": "disrupts dopamine (DA) release and uptake"}, {"measurement": "DA uptake (Vmax)", "setting": "[3]; FIG. 3B, 4 mg/kg SK609 vs vehicle", "value": "disrupts dopamine (DA) release and uptake"}, {"measurement": "dopamine release at baseline", "setting": "[3]", "value": "reduce DA release and uptake"}, {"measurement": "dopamine uptake at baseline", "setting": "[3]", "value": "reduce DA release and uptake"}, {"measurement": "dopamine release after bath-applied cocaine", "setting": "[3]", "value": "significantly reduced DA release and uptake inhibition by cocaine"}, {"measurement": "inhibition of dopamine uptake by cocaine", "setting": "[3]", "value": "significantly reduced DA release and uptake inhibition by cocaine"}, {"measurement": "motivation for cocaine (breakpoints, lever presses)", "setting": "[7]", "value": "reduced motivation for cocaine"}]}
{"smiles": "CCCN1CCO[C@@H]2c3cc(O)ccc3OC[C@H]21", "note": "[PD128609, (4aR,10bR)-3,4a,4,10b-tetrahydro-4-propyl-2H,5H-[1]benzopyrano-[4,3-b]-1,4-oxazin-9-ol]", "values": [{"measurement": "ERK1/2 phosphorylation induced by activation of D2 receptor", "setting": "[8]", "value": "activated both D2 and D3 receptors"}, {"measurement": "ERK1/2 phosphorylation induced by activation of D3 receptor", "setting": "[9]", "value": "activated both D2 and D3 receptors"}]}
{"smiles": "CC(N)CCc1ccc(Cl)cc1", "note": "(stereo not drawn) [SK608, 4-(4-chlorophenyl)-butan-2-amine]", "values": [{"measurement": "pDAT levels, combined with / post cocaine (CC)", "setting": "[1]", "value": "significantly reduced pDAT levels"}, {"measurement": "dopamine release at baseline", "setting": "[3]", "value": "reduce DA release and uptake"}, {"measurement": "dopamine uptake at baseline", "setting": "[3]", "value": "reduce DA release and uptake"}, {"measurement": "dopamine release after bath-applied cocaine", "setting": "[3]", "value": "significantly reduced DA release and uptake inhibition by cocaine"}, {"measurement": "inhibition of dopamine uptake by cocaine", "setting": "[3]", "value": "significantly reduced DA release and uptake inhibition by cocaine"}]}
